Several values for one entry are separate records, joined by “and”; a condition that tells them apart may be missing. Identical values can stand only once.
System: 857933-349-R-J2-PDC complex spheroid viability
Test: Anticancer human tumor 857933-349-R-J2-PDC patient-derived colon adenocarcinoma cell line growth inhibition [POLQ]
Settings: for viability, T/C: stronger effect = lower value
Method: Multicellular complex tumor spheroid response to Polymerase (POL) inhibitors (novobiocin, ART-558, RP6685) in combination with a variety of drugs and investigational agents in selected tumor cell lines
The POL inhibitors (novobiocin, ART-558, and RP6685) were evaluated both individually and in combination with standard of care and investigational anticancer small molecules within a complex spheroid model of solid tumors. . Complex spheroids include a stromal component modeled by human endothelial cells (HUVEC) and fibroblasts modeled by human mesenchymal stem cells (MSCs). The concentration ranges selected for each drug and investigational agent were based upon clinically achievable concentrations if the clinical Cmax of the agent was known.
Compounds. The drugs and investigational agents: novobiocin (NSC847541), ART-558 (NSC835418), RP-6685 (NSC848927), peposertib (NSC802822), ceralasertib (NSC780249), elimusertib (NSC800525), camonsertib (NSC841442), AZD-1390 (NSC803789), olaparib (NSC753686), talazoparib (NSC767125), rucaparib (NSC756644), sotorasib (NSC818433), MRTX-1133 (NSC836407), SN-38 (NSC673596), topotecan (NSC609699), epotoside (NSC141540), doxorubicin (NSC123127), gemcitabine (NSC613327), 5-fluorouracil (NSC19893), paclitaxel (NSC125973), vemurafenib (NSC761431), MSA-2 (NSC828583), SN-011 (NSC837082), adavosertib (NSC754352), prexasertib (NSC758257), carboplatin (NSC241240) and oxaliplatin (NSC266046), were obtained from the National Cancer Institute (NCI) Developmental Therapeutics Program Chemical Repository (21). The FDA-approved anticancer drug set is available from the Developmental Therapeutics Program at https://dtp.cancer.gov/organization/dscb/obtaining/. […] The stock solutions were prepared in dimethyl sulfoxide (DMSO, Sigma-Aldrich, St. Louis, MO, cat. D2650), except for the platinum compounds which were prepared in saline (Quality Biological, Gaithersburg, MD, cat. 114-055-101), at 800-fold the tested concentration and stored at -70 degrees C prior to their use. All drugs and investigational agents were tested over a range starting from a high concentration at or near the clinical Cmax and decreasing in half-log increments. If the clinical Cmax for an agent had not been determined, the highest concentration tested was 10 microM, except for SN-38, which was tested at a high concentration of 1 microM.
Cell Culture. All cells were maintained in an incubator at 37 degrees C and 5% CO2 with 95% humidity. The PDC lines were cultured according to standard operating procedures established by the NCI PDMR (https://pdmr.cancer.gov). Table 3 of the manuscript, lists the cell lines along with the number of the three cell types plated to form the mct-spheroids and media for tumor cell growth. After thawing, all PDC lines, except 997537-175-T-J1-PDC and 415267-285-R-J2-PDC, were cultured in Matrigel-coated flasks prepared with a working solution of 1X Ham's F-12 nutrient mix, without supplementation (Thermo Fisher Scientific, cat. 11765054), 100 U/mL penicillin-streptomycin (Thermo Fisher Scientific, cat. 15140122), and 2.5% Matrigel (Corning Inc., Corning, NY, cat. 354248) for the first three passages. The two PDC lines 997537-175-T-J1-PDC and 415267-285-R-J2-PDC were cultured on uncoated flasks. The 857933-349-R-J2-PDC line was cultured in 6C/Colon 1B media containing advanced DMEM/F-12 (Thermo Fisher Scientific, cat. 12634028), 10 mM HEPES (Thermo Fisher Scientific, cat. 15630080), 1X GlutaMAX supplement (Thermo Fisher Scientific, cat. 35050061), 0.1 mg/mL primocin (InvivoGen, San Diego, CA, cat. ant-pm-2), 10% defined fetal bovine serum, heat inactivated (HyClone Laboratories Inc., Logan, UT, cat. SH30070.03HI), 50% L-WRN conditioned media (ATCC, cat. CRL-3276), 1.25 mM N-Acetyl-L-cysteine (Sigma-Aldrich, cat. A9165), 10 mM nicotinamide (Sigma-Aldrich, cat. N0636), 1X B-27 supplement (Thermo Fisher Scientific, cat. 17504044), 1X N-2 supplement (Thermo Fisher Scientific, cat. […]
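Note: spheroids exposed to compounds for seven days before readout.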

COc1cc2cc(C(=O)CCC(=O)O)sc2cc1OC
viability, T/C (compound 0.0316 µM): 92.5% and 89% and 101% | viability, T/C (compound 0.1 µM): 88.6% and 95.5% and 91.5% | viability, T/C (compound 0.316 µM): 94.9% and 102% and 82.7% | viability, T/C (compound 1 µM): 88.2% and 110% and 92.5% | viability, T/C (compound 3.16 µM): 102% and 111% and 116% | viability, T/C (compound 10 µM): 84.1% and 95% and 89.9% | IC50 (curve of compound): > 10 µM

CCc1cc2c(N3CCc4c(cc(Cn5ccnc5)cc4-c4cn(C)nc4C(F)(F)F)C3=O)ccnc2c(OC)n1
viability, T/C (compound 0.0316 µM): 78.8% and 89.8% and 94.1% | viability, T/C (compound 0.1 µM): 83.8% and 87.8% and 80.9% | viability, T/C (compound 0.316 µM): 73.6% and 90% and 98.3% | viability, T/C (compound 1 µM): 73.4% and 84.9% and 82.2% | viability, T/C (compound 3.16 µM): 62.2% and 72.7% and 78% | viability, T/C (compound 10 µM): 58.9% and 65.9% and 59% | IC50 (curve of compound): > 10 µM

O=C(Nc1ccc(O)c(NS(=O)(=O)c2ccc(F)cc2)c1)c1ccc(-c2ccccc2)cc1
viability, T/C (compound 0.0316 µM): 93.1% and 99.4% and 97.2% | viability, T/C (compound 0.1 µM): 97.3% and 105% and 102% | viability, T/C (compound 0.316 µM): 82.5% and 107% and 105% | viability, T/C (compound 1 µM): 94.7% and 94% and 82.6% | viability, T/C (compound 3.16 µM): 95.3% and 86.2% and 100% | viability, T/C (compound 10 µM): 77.8% and 88.1% and 78.2% | IC50 (curve of compound): > 10 µM

CC1COCCN1c1cc(C2(O)CC3CCC(C2)O3)c2cnn(-c3ccn[nH]3)c2n1 (configuration not stated)
viability, T/C (compound 0.0316 µM): 62.7% and 58.8% and 79.7% | viability, T/C (compound 0.1 µM): 51.6% and 50.3% and 63.5% | viability, T/C (compound 0.316 µM): 52.9% and 47% and 57.7% | viability, T/C (compound 1 µM): 44.2% and 42.2% and 45.6% | viability, T/C (compound 3.16 µM): 39.6% and 45.2% and 46.2% | viability, T/C (compound 10 µM): 45.9% and 49.6% and 45.8% | IC50 (curve of compound): 0.232 µM and 0.0942 µM and 0.805 µM

COc1ccc([C@@H](O)c2cc(-c3ncnc4cc(N5CCOCC5)ccc34)c(F)cc2Cl)nn1
viability, T/C (compound 0.0316 µM): 97.4% and 82.2% and 96.7% | viability, T/C (compound 0.1 µM): 85.4% and 95.2% and 123% | viability, T/C (compound 0.316 µM): 85.5% and 99% and 89.7% | viability, T/C (compound 1 µM): 102% and 100% and 95.2% | viability, T/C (compound 3.16 µM): 84.8% and 82.1% and 79.2% | viability, T/C (compound 10 µM): 71.6% and 58.9% and 66% | IC50 (curve of compound): > 10 µM

O=C(Nc1ccc(O)c(NS(=O)(=O)c2ccc(F)cc2)c1)c1ccc(-c2ccccc2)cc1 + COC1C(OC(N)=O)C(O)C(Oc2ccc3c(O)c(NC(=O)c4ccc(O)c(CC=C(C)C)c4)c(=O)oc3c2C)OC1(C)C
IC50 (curve of first compound, second compound 0.0316 µM): > 10 µM | IC50 (curve of first compound, second compound 0.1 µM): > 10 µM | IC50 (curve of first compound, second compound 0.316 µM): > 10 µM | IC50 (curve of first compound, second compound 1 µM): > 10 µM | IC50 (curve of first compound, second compound 3.16 µM): > 10 µM | IC50 (curve of first compound, second compound 10 µM): > 10 µM | viability, T/C (second compound 0.0316 µM, first compound 0.0316 µM): 70.1% | viability, T/C (second compound 0.0316 µM, first compound 0.1 µM): 105% | viability, T/C (second compound 0.0316 µM, first compound 0.316 µM): 92.3% | viability, T/C (second compound 0.0316 µM, first compound 1 µM): 89.2% | viability, T/C (second compound 0.0316 µM, first compound 3.16 µM): 80.7% | viability, T/C (second compound 0.0316 µM, first compound 10 µM): 78.6% | viability, T/C (second compound 0.1 µM, first compound 0.0316 µM): 116% | viability, T/C (second compound 0.1 µM, first compound 0.1 µM): 95.9% | viability, T/C (second compound 0.1 µM, first compound 0.316 µM): 94.1% | viability, T/C (second compound 0.1 µM, first compound 1 µM): 92.3% | viability, T/C (second compound 0.1 µM, first compound 3.16 µM): 114% | viability, T/C (second compound 0.1 µM, first compound 10 µM): 101% | viability, T/C (second compound 0.316 µM, first compound 0.0316 µM): 96% | viability, T/C (second compound 0.316 µM, first compound 0.1 µM): 85.5% | viability, T/C (second compound 0.316 µM, first compound 0.316 µM): 65.9% | viability, T/C (second compound 0.316 µM, first compound 1 µM): 65.5% | viability, T/C (second compound 0.316 µM, first compound 3.16 µM): 113% | viability, T/C (second compound 0.316 µM, first compound 10 µM): 84.1% | viability, T/C (second compound 1 µM, first compound 0.0316 µM): 79.5% | viability, T/C (second compound 1 µM, first compound 0.1 µM): 91.1% | viability, T/C (second compound 1 µM, first compound 0.316 µM): 81.1% | viability, T/C (second compound 1 µM, first compound 1 µM): 72.9% | viability, T/C (second compound 1 µM, first compound 3.16 µM): 109% | viability, T/C (second compound 1 µM, first compound 10 µM): 80.7% | viability, T/C (second compound 3.16 µM, first compound 0.0316 µM): 101% | viability, T/C (second compound 3.16 µM, first compound 0.1 µM): 86.9% | viability, T/C (second compound 3.16 µM, first compound 0.316 µM): 113% | viability, T/C (second compound 3.16 µM, first compound 1 µM): 99.2% | viability, T/C (second compound 3.16 µM, first compound 3.16 µM): 85.3% | viability, T/C (second compound 3.16 µM, first compound 10 µM): 61.5% | viability, T/C (second compound 10 µM, first compound 0.0316 µM): 76.2% | viability, T/C (second compound 10 µM, first compound 0.1 µM): 88.7% | viability, T/C (second compound 10 µM, first compound 0.316 µM): 99.8% | viability, T/C (second compound 10 µM, first compound 1 µM): 82.8% | viability, T/C (second compound 10 µM, first compound 3.16 µM): 77.9% | viability, T/C (second compound 10 µM, first compound 10 µM): 68.8%
